Each compound was assayed against human Nav1.7 (Homo sapiens (Human), UniProt Q15858) (assay: FRET-based membrane potential assay, recombinant human sodium channel Nav1.7). Details: HEK293 cells stably expressing recombinant human Nav1.7; depolarization with veratridine (EC80) + scorpion venom.
human Nav1.7, sequence (Q15858 whole entry): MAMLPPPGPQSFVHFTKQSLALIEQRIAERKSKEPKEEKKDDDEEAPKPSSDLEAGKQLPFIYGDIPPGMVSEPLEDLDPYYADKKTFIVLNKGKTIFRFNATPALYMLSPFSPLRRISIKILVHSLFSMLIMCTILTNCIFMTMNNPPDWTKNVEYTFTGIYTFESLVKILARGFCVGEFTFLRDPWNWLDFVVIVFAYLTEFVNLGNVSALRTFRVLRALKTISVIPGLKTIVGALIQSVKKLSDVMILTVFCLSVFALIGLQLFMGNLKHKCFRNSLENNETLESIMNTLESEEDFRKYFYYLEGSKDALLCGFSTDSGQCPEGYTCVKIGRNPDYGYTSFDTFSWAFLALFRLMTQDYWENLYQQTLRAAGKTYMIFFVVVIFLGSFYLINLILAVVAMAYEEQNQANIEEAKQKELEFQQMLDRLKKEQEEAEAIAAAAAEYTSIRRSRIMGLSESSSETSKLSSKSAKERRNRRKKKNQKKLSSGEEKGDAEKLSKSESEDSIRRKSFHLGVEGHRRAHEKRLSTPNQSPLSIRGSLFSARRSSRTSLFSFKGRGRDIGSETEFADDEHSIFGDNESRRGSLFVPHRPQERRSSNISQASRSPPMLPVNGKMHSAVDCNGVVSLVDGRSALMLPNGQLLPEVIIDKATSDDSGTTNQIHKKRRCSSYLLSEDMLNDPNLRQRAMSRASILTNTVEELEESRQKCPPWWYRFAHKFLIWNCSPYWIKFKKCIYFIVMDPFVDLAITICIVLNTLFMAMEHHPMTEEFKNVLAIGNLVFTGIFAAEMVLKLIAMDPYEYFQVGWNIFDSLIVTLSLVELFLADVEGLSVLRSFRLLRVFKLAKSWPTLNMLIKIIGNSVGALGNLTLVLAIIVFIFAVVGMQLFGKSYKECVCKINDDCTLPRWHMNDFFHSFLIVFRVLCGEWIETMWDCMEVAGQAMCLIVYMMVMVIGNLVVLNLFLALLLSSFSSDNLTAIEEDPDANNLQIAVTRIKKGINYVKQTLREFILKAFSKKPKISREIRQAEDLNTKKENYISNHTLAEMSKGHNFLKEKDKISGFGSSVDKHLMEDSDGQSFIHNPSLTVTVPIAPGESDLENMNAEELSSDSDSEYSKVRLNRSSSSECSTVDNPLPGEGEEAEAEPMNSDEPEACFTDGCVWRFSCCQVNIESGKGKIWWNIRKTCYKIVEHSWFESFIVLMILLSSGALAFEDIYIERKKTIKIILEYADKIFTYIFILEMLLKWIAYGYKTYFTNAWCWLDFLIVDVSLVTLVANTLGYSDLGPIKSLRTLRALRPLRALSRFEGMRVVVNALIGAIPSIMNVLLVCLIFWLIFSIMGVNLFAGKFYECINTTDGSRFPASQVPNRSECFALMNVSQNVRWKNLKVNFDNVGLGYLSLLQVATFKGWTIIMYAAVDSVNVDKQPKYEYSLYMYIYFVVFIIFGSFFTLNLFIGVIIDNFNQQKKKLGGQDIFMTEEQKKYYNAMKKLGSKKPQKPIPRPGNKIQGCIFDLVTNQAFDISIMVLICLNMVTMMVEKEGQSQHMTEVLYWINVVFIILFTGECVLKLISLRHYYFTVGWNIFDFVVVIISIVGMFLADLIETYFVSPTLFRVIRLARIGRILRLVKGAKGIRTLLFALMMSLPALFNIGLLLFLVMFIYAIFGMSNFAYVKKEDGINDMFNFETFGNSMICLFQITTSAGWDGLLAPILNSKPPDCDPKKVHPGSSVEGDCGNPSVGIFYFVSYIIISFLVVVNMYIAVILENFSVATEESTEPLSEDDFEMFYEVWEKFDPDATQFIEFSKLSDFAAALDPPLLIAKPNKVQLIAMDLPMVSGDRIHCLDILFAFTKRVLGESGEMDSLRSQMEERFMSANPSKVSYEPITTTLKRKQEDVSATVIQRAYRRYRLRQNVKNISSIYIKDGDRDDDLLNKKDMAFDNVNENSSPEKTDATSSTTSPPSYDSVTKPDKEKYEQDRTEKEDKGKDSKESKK
Format: cell-based
Method: FRET-Based Membrane Potential Assays.
Recombinant, Human Sodium Channel, Nav1.7.
Two days prior to the experiment, frozen HEK293 cells stably expressing recombinant human Nav1.7 were quickly thawed and plated at 25,000 cells/well in growth medium [DMEM (Invitrogen #11965) with 10% HI FBS (Invitrogen #10082), 2 mM glutamine, 100 units/mL penicillin, 0.1 mg/mL streptomycin (PSG, Sigma #G1146), and 500 μg/mL Geneticin (Invitrogen #10131)] in black-walled, clear-bottom 384-well poly-D-lysine-coated assay plates (Greiner Bio-One, Frickenhausen, Germany) and incubated in a humidified 5% CO2 incubator at 37° C. On the day of the assay, medium was removed by aspiration, and cells were washed with assay buffer [HBSS (Invitrogen, Carlsbad, Calif.) containing 20 mM HEPES (Invitrogen, Carlsbad, Calif.)]. After washing, 30 μL assay buffer containing the fluorescent voltage-sensor probe CC2-DMPE (Invitrogen, Carlsbad, Calif.) at 20 μM and 0.01% pluronic F-127 (Invitrogen, Carlsbad, Calif.) was added to the cells. Cells were incubated for 40 minutes at room temperature in the dark. Following the incubation, the cells were washed and 30 μL assay buffer containing 2.5 μM DiSBAC2(3) substrate (Invitrogen, Carlsbad, Calif.) and 0.5 mM VABSC-1 (Invitrogen, Carlsbad, Calif.) was added to the cells. The cells were incubated for 90 minutes at room temperature in the dark. Fluorescence readings were made using a FLIPR®^TETRA (Molecular Devices, Sunnyvale Calif.) equipped with voltage-sensor probe optics. At the start of each experiment the optimal (EC80) concentration of depolarizing agent (veratridine) was determined by testing a dilution curve of assay buffer containing veratridine (Sigma-Aldrich, St. Louis, Mo.) and 1 mg/mL scorpion venom (SVqq, from Leiurus quinquestriatus; Sigma-Aldrich, St. Louis, Mo.). […] Test compounds in the daughter plate were diluted to (˜3×) solutions in assay buffer immediately before assaying. Using the FLIPR®^TETRA, 20 μL of the (3×) compound solutions were first added to the cells, then 20 μL of depolarizing solution (3×EC80 veratridine+SVqq) were added 3 minutes later to activate the channel. Changes in fluorescence were measured at wavelengths of 440-480 nm and 565-625 nm over the course of the experimental run. Membrane depolarization was expressed as a ratio of the maximum F440-480 nm/F565-625 nm reading above average baseline F440-480 nm/F565-625 nm reading. IC50 values were calculated from curve fits of the ratio data using a four-parameter logistic Hill equation (Accelrys Assay Explorer 3.3 Client, Accelrys, San Diego, Calif.) with percent inhibition plotted against compound concentration.
C[C@@H]1CN(c2cccc3c2cnn3-c2ccccc2F)C(=O)N1Cc1ncco1 [Example 247, (4R)-1-[1-(2-fluorophenyl)-1H-indazol-4-yl]-4-methyl-3-(1,3-oxazol-2-ylmethyl)imidazolidin-2-one] gave an IC50 of 0.981 µM. With CS(=O)(=O)N1CCN(c2cccc3c2cnn3-c2ccccc2F)C1=O [Example 6, 1-[1-(2-fluorophenyl)-1H-indazol-4-yl]-3-(methylsulfonyl)imidazolidin-2-one] the IC50 was 1.3 µM. Work on Cc1nocc1CN1CCN(c2cccc3c2cnn3-c2ccccc2F)C1=O [Example 264, 1-[1-(2-fluorophenyl)-1H-indazol-4-yl]-3-[(3-methyl-1,2-oxazol-4-yl)methyl]imidazolidin-2-one] yielded an IC50 of 3.35 µM. Work on O=C1N(c2cccc3c2cnn3-c2ccccc2F)CCN1C1CN(C(=O)C2(O)CC2)C1 [Example 269, 1-[1-(2-fluorophenyl)-1H-indazol-4-yl]-3-{1-[(1-hydroxycyclopropyl)carbonyl]azetidin-3-yl}imidazolidin-2-one] yielded an IC50 of 5.79 µM. O=C(CN1CCN(c2cccc3c2cnn3-c2ccccc2F)C1=O)C1CC1 [Example 183, 1-(2-cyclopropyl-2-oxoethyl)-3-[1-(2-fluorophenyl)-1H-indazol-4-yl]imidazolidin-2-one] showed an IC50 of 2.93 µM. In the case of NS(=O)(=O)CN1CCN(c2cccc3c2cnn3-c2ccccc2F)C1=O [Example 58, 1-{3-[1-(2-fluorophenyl)-1H-indazol-4-yl]-2-oxoimidazolidin-1-yl}methanesulfonamide], the IC50 is reported as 2.29 µM. In the case of O=C(CC1CCOC1)CN1CCN(c2cccc3c2cnn3-c2ccccc2F)C1=O (centres unmarked) [Example 157, 1-[1-(2-fluorophenyl)-1H-indazol-4-yl]-3-[2-oxo-3-(tetrahydrofuran-3-yl)propyl]imidazolidin-2-one], the IC50 is reported as 3.37 µM. With O=C(CN1CCN(c2cccc3c2cnn3-c2ccccc2F)C1=O)N1CC(F)(F)C1 [Example 91, 1-[2-(3,3-difluoroazetidin-1-yl)-2-oxoethyl]-3-[1-(2-fluorophenyl)-1H-indazol-4-yl]imidazolidin-2-one] the IC50 was 1.74 µM. O=C1N(c2cnccn2)CCN1c1cccc2c1cnn2-c1ccccc1F [Example 226, 1-[1-(2-fluorophenyl)-1H-indazol-4-yl]-3-(pyrazin-2-yl)imidazolidin-2-one] showed an IC50 of 3.37 µM. In the case of C[C@H]1CCCN1C(=O)CN1CCCN(c2cccc3c2cnn3-c2ccccc2F)C1=O [Example 187, 1-[1-(2-fluorophenyl)-1H-indazol-4-yl]-3-{2-[(2S)-2-methylpyrrolidin-1-yl]-2-oxoethyl}tetrahydropyrimidin-2(1H)-one], the IC50 is reported as 1.91 µM. Compound CC(C)C(=O)CN1CCN(c2cccc3c2cnn3-c2ccccc2F)C1=O [Example 162, 1-[1-(2-fluorophenyl)-1H-indazol-4-yl]-3-(3-methyl-2-oxobutyl)imidazolidin-2-one] has an IC50 of 0.729 µM. With COc1nccnc1CN1CCN(c2cccc3c2cnn3-c2ccccc2F)C1=O [Example 248, 1-[1-(2-fluorophenyl)-1H-indazol-4-yl]-3-[(3-methoxypyrazin-2-yl)methyl]imidazolidin-2-one] the IC50 was 1.04 µM. In the case of O=C1N(c2ccccn2)CCN1c1cccc2c1cnn2-c1ccccc1F [Example 130, 1-[1-(2-fluorophenyl)-1H-indazol-4-yl]-3-(pyridin-2-yl)imidazolidin-2-one], the IC50 is reported as 1.85 µM. CC(C)(O)CN1CCN(c2cccc3c2cnn3-c2ccccc2F)C1=O [Example 64, 1-[1-(2-fluorophenyl)-1H-indazol-4-yl]-3-(2-hydroxy-2-methylpropyl)imidazolidin-2-one] showed an IC50 of 9.52 µM. O=C1NCCN1c1cccc2c1cnn2-c1ccccc1F [Example 57, 1-[1-(2-fluorophenyl)-1H-indazol-4-yl]imidazolidin-2-one] gave an IC50 of 9.64 µM. Work on CS(=O)(=O)N1CC(N2CCN(c3cccc4c3cnn4-c3ccccc3F)C2=O)C1 [Example 271, 1-[1-(2-fluorophenyl)-1H-indazol-4-yl]-3-[1-(methylsulfonyl)azetidin-3-yl]imidazolidin-2-one] yielded an IC50 of 3.45 µM. Compound Cc1nc(CN2CCN(c3cccc4c3cnn4-c3ccccc3F)C2=O)cs1 [Example 217, 1-[1-(2-fluorophenyl)-1H-indazol-4-yl]-3-[(2-methyl-1,3-thiazol-4-yl)methyl]imidazolidin-2-one] has an IC50 of 1.07 µM. In the case of CC(C)(O)[C@H]1CCN(C(=O)CN2CCN(c3cccc4c3cnn4-c3ccccc3F)C2=O)C1 [Example 85, 1-[1-(2-fluorophenyl)-1H-indazol-4-yl]-3-{2-[(3S)-3-(2-hydroxypropan-2-yl)pyrrolidin-1-yl]-2-oxoethyl}imidazolidin-2-one], the IC50 is reported as 12.3 µM. O=C1N(CC(=O)N2C[C@H](O)C[C@@H]2c2cc(F)ccc2F)CCN1c1cccc2c1cnn2-c1ccccc1F [Example 121, 1-{2-[(2R,4R)-2-(2,5-difluorophenyl)-4-hydroxypyrrolidin-1-yl]-2-oxoethyl}-3-[1-(2-fluorophenyl)-1H-indazol-4-yl]imidazolidin-2-one] showed an IC50 of 2.41 µM. Work on Cc1cncc(CN2CCCN(c3cccc4c3cnn4-c3ccccc3F)C2=O)n1 [Example 259, 1-[1-(2-fluorophenyl)-1H-indazol-4-yl]-3-[(6-methylpyrazin-2-yl)methyl]tetrahydropyrimidin-2(1H)-one] yielded an IC50 of 3.36 µM. Work on Cc1nc(CN2CCN(c3cccc4c3cnn4-c3ccccc3F)C2=O)oc1C [Example 238, 1-[(4,5-dimethyl-1,3-oxazol-2-yl)methyl]-3-[1-(2-fluorophenyl)-1H-indazol-4-yl]imidazolidin-2-one] yielded an IC50 of 0.586 µM. Work on O=C1N(Cc2ccncc2)CCN1c1cccc2c1cnn2-c1ccccc1F [Example 210, 1-[1-(2-fluorophenyl)-1H-indazol-4-yl]-3-(pyridin-4-ylmethyl)imidazolidin-2-one] yielded an IC50 of 3.33 µM. Compound COC(=O)[C@H]1CCCN1C(=O)CN1CCN(c2cccc3c2cnn3-c2ccccc2F)C1=O [Example 119, methyl 1-({3-[1-(2-fluorophenyl)-1H-indazol-4-yl]-2-oxoimidazolidin-1-yl}acetyl)-D-prolinate] has an IC50 of 1.76 µM. In the case of CC(C)CC(O)CN1CCN(c2cccc3c2cnn3-c2ccccc2F)C1=O (centres unmarked) [Example 123, 1-[1-(2-fluorophenyl)-1H-indazol-4-yl]-3-(2-hydroxy-4-methylpentyl)imidazolidin-2-one], the IC50 is reported as 0.346 µM. Cc1nc(CN2CCN(c3cccc4c3cnn4-c3ccc(F)cc3F)C2=O)cs1 [Example 243, 1-[1-(2,4-difluorophenyl)-1H-indazol-4-yl]-3-[(2-methyl-1,3-thiazol-4-yl)methyl]imidazolidin-2-one] gave an IC50 of 1.61 µM. For CCOCCNC(=O)CN1CCN(c2cccc3c2cnn3-c2ccccc2F)C1=O [Example 74, N-(2-ethoxyethyl)-2-{3-[1-(2-fluorophenyl)-1H-indazol-4-yl]-2-oxoimidazolidin-1-yl}acetamide], the IC50 was 7.54 µM. C[C@H]1CCN(C(=O)CN2CCN(c3cccc4c3cnn4-c3ccccc3F)C2=O)C1 [Example 90, 1-[1-(2-fluorophenyl)-1H-indazol-4-yl]-3-{2-[(3S)-3-methylpyrrolidin-1-yl]-2-oxoethyl}imidazolidin-2-one] showed an IC50 of 1.72 µM. Compound CC(C)[C@H]1CCCN1C(=O)CN1CCN(c2cccc3c2cnn3-c2ccccc2F)C1=O [Example 126, 1-[1-(2-fluorophenyl)-1H-indazol-4-yl]-3-{2-[(2R)-2-isopropylpyrrolidin-1-yl]-2-oxoethyl}imidazolidin-2-one] has an IC50 of 0.343 µM. O=C(CN1CCN(c2cccc3c2cnn3-c2ccccc2F)C1=O)N1CCC(F)(F)C1 [Example 86, 1-[2-(3,3-difluoropyrrolidin-1-yl)-2-oxoethyl]-3-[1-(2-fluorophenyl)-1H-indazol-4-yl]imidazolidin-2-one] gave an IC50 of 1.96 µM. Compound O=C1N(Cc2nc3ccccc3s2)CCN1c1cccc2c1cnn2-c1ccccc1F [Example 179, 1-(1,3-benzothiazol-2-ylmethyl)-3-[1-(2-fluorophenyl)-1H-indazol-4-yl]imidazolidin-2-one] has an IC50 of 15.4 µM. Cc1nc(CN2CCN(c3cccc4c3cnn4-c3ccccc3F)C2=O)c(C)s1 [Example 239, 1-[(2,5-dimethyl-1,3-thiazol-4-yl)methyl]-3-[1-(2-fluorophenyl)-1H-indazol-4-yl]imidazolidin-2-one] gave an IC50 of 0.352 µM. Compound O=C1N(CC(=O)N2CCCC2CN2CCOCC2)CCN1c1cccc2c1cnn2-c1ccccc1F (centres unmarked) [Example 71, 1-[1-(2-fluorophenyl)-1H-indazol-4-yl]-3-{2-[2-(morpholin-4-ylmethyl)pyrrolidin-1-yl]-2-oxoethyl}imidazolidin-2-one] has an IC50 of 2.34 µM.

Source: patent publication US9783527B2, “Indazole ureas and method of use” (AbbVie Inc., priority 2014, dated 2017)
